Conditions: Fluid (supercritical or subcritical phases)

O=C=O [carbon dioxide]
mass density [kg/m3]
Conditions	10000 kPa	12000 kPa	15000 kPa	18000 kPa	21000 kPa
308 K	714.84	768.42	816.06	848.87	874.4
318 K	502.57	659.73	743.17	790.18	823.71
328 K	326.4	506.85	654.94	724.13	768.74

Reference: the NIST ThermoML archive (doi:10.1016/j.tca.2011.01.039)
